Source: US20260265329A1, “POLYPEPTIDE AND DERIVATIVE THEREOF, COMPOSITION, AND USE THEREOF” (HANGZHOU SCIWIND BIOSCIENCES CO., LTD., priority 2023, published 2026)
Starred links: 1 amine or outer side, 2 acyl side, 3 side chain; linkers in the order of their positions; H or OH if unused. Non-standard residues stand in square brackets, D forms with d. Residues, ends and D or L forms follow the SMILES beside them. *: point of attachment. C20 diacid = O=C(O)CCCCCCCCCCCCCCCCCCC(=O)*; γGlu = O=C(O)[C@H](CCC(=O)[*:2])N[*:1]; Hyp = O=C(O)[C@@H]1C[C@@H](O)CN1

What was measured:
[1] = Heat accelerated stability assay, 40° C., detection on 7 d and 28 d; format: physicochemical
Procedure: (§1) The derivatives (1 mg/mL) were mixed with sodium dihydrogen phosphate (1.42 mg/mL) and dissolved in ultrapure water. After adjusting pH to about 7.4 with hydrochloric acid/sodium hydroxide, the solution was filtered into a sterilized vial in a clean bench using a 0.22 μm sterile filter. The vial was then capped and placed into the stability test chamber at 40° C. Detections were made on Days 7 (7d) and 28 (28d), and during the assay, changes in the characteristics and properties of the polypeptides were observed and recorded. The sample was then centrifuged for 3 min at 10000 rpm at 4° C., and the supernatant was transferred to a liquid phase sample vial for detecting the concentration and purity of the polypeptides using liquid phase chromatography described as below.
Conditions of the reversed phase chromatography Flow rate: 1.0 mL/min; Autosampler temperature: 15° C.; Column temperature: 25° C.; Detection wavelength: 214 nm; Mobile phase A: 100% H2O+0.05% TFA; Mobile phase B: 100% ACN; and Gradient of elution listed in Table 4: […]

human amylin receptors = molecular target: T1, human amylin receptors (Homo sapiens, UniProt O60896+P30988); assay: Luciferase assay in stably transfected amylin receptor/CRE-luc CHO cell line; format: cell-based; details: for Relative activity: EC50 ratio of Cagrilintide to the compound, Cagrilintide 100%; for EC50: amylin receptor/CRE-luc CHO cells, 24 hours incubation, luminescence
T1 construct: host or cells: CHO-K1/Ga15/AMY3 cells, further stably transfected with a CRE-luciferase plasmid
T1 sequence (P30988 25-474): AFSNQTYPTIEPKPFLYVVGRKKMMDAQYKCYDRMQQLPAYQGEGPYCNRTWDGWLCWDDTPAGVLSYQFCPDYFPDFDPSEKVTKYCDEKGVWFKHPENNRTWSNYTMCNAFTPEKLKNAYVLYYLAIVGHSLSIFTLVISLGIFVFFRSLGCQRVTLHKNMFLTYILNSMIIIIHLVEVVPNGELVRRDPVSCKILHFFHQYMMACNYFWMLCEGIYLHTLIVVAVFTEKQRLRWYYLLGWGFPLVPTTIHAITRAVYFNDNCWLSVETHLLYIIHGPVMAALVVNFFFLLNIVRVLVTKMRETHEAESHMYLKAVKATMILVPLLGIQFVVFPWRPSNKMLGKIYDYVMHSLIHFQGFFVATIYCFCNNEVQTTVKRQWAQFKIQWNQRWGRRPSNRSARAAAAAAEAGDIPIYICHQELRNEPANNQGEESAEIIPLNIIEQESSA
T1 sequence (O60896 24-148 partner): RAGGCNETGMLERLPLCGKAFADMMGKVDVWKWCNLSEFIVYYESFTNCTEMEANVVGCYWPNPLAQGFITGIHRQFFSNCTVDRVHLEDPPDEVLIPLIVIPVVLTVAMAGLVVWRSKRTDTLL

[2] = Heat accelerated stability assay, 40° C., detection on 10 d and 20 d; format: physicochemical; details: 1 mg/mL, pH about 7.4, 40° C.
Procedure: as §1, with “10d” for “Days 7 (7d)”, “20d,” for “28 (28d),”, “assay” for “assay,”
Flow rate: 1.0 mL/min; Autosampler temperature: 25° C.; Column temperature: 25° C.; Detection wavelength: 214 nm; Mobile phase A: 110 mM phosphate buffer (pH 5.8): ACN=90:10; Mobile phase B: ACN: IPA: H2O=85:5:10; and Gradient of elution listed in Table 6: […]

in vivo = assay: in vivo; parameters: species or system SD rats; details: rat, sc, 1 mg/kg
Procedure: The animals received a subcutaneous injection of corresponding compounds for testing (1 mg/kg and 5 ml/kg), and the day of administration was designated as D1. The whole blood of the animals was collected pre dose (-10 min) on D1 and post dose at D1-2h, D1-4h, D1-6h, D2-24h, D3-48h, D4-72h, D5-96h, and D6-120 h and was processed into plasma (using EDTA for anticoagulation). Liquid chromatography-tandem mass spectrometry (LC-MS/MS) was used to detect the concentration of drug molecules in the plasma, and GraphPad Prism 10 was utilized to plot a concentration-time curve for the drugs whose pharmacokinetic parameters including Cmax, Tmax, T1/2, AUC, and MRT were then calculated with PKSolver.

Row | Purity from the reversed phase chromatography-214 nm, 0 d ([1]; 1 mg/mL, pH about 7.4, 40° C., 0 d) | Purity from the reversed phase chromatography-214 nm, 7 d ([1]; 1 mg/mL, pH about 7.4, 40° C., 7 d) | Purity from the reversed phase chromatography-214 nm, 28 d ([1]; 1 mg/mL, pH about 7.4, 40° C., 28 d) | Change (7 d − 0 d) ([1]; purity on 7 d − purity on 0 d, 40° C., pH about 7.4) | Change (28 d − 0 d) ([1]; purity on 28 d − purity on 0 d, 40° C., pH about 7.4) | Relative activity (human amylin receptors) [%] | Reduction in purity, 10 d [2] [%] | AUC(0-inf) (in vivo) [µg·h/mL] | AUC(0-t) (in vivo) [µg·h/mL] | Cmax (in vivo) [ng/mL] | MRT inf (in vivo) [h] | Tmax (in vivo) [h] | half-life (in vivo) [h] | EC50 (human amylin receptors) [nM] | Reduction in purity, 20 d [2] [%] | Compound
1 | 90.04 | 82.03 | 73.89 | −8.01 | −16.15 | 100 | 44.83 | 177 | 173 | 3270 | 43.4 | 24 | 24.7 | – | – | CC[C@H](C)[C@H](NC(=O)[C@@H]1CCCN1C(=O)CNC(=O)[C@H](Cc1ccccc1)NC(=O)[C@H](CC(N)=O)NC(=O)[C@H](CC(N)=O)NC(=O)[C@H](CO)NC(=O)[C@H](CO)NC(=O)[C@H](Cc1c[nH]cn1)NC(=O)[C@H](CCCNC(=N)N)NC(=O)[C@H](CC(C)C)NC(=O)[C@H](Cc1ccccc1)NC(=O)[C@H](CCC(=O)O)NC(=O)[C@H](C)NC(=O)[C@H](CC(C)C)NC(=O)[C@H](CCCNC(=N)N)NC(=O)[C@H](CCC(N)=O)NC(=O)[C@@H](NC(=O)[C@H](C)NC(=O)[C@@H]1CSSC[C@H](NC(=O)[C@H](CCCCN)NC(=O)CC[C@H](NC(=O)CCCCCCCCCCCCCCCCCCC(=O)O)C(=O)O)C(=O)N[C@@H](CC(N)=O)C(=O)N[C@@H]([C@@H](C)O)C(=O)N[C@@H](C)C(=O)N[C@@H]([C@@H](C)O)C(=O)N1)[C@@H](C)O)C(=O)N[C@@H](CC(C)C)C(=O)N1CCC[C@H]1C(=O)N1CCC[C@H]1C(=O)N[C@H](C(=O)N[C@@H](CC(N)=O)C(=O)N[C@H](C(=O)NCC(=O)N[C@@H](CO)C(=O)N[C@@H](CC(N)=O)C(=O)N[C@H](C(=O)N1CCC[C@H]1C(N)=O)[C@@H](C)O)C(C)C)[C@@H](C)O [Cagrilintide, reference compound]
2 | – | – | – | – | – | 200 | 11.82 | – | – | – | – | – | – | 0.08 | 19.98 | CC[C@H](C)[C@H](NC(=O)[C@@H]1CCCN1C(=O)[C@H](CCCCN)NC(=O)[C@H](CC(C)C)NC(=O)[C@H](CC(N)=O)NC(=O)[C@H](CCCCN)NC(=O)[C@H](CO)NC(=O)[C@H](CO)NC(=O)[C@H](Cc1c[nH]cn1)NC(=O)[C@H](CCCNC(=N)N)NC(=O)[C@H](CC(C)C)NC(=O)[C@H](Cc1ccccc1)NC(=O)[C@H](CC(=O)O)NC(=O)[C@H](C)NC(=O)[C@H](CC(C)C)NC(=O)[C@H](CCCNC(=N)N)NC(=O)[C@H](CCC(N)=O)NC(=O)[C@@H](NC(=O)[C@H](C)NC(=O)[C@H](C)NC(=O)[C@@H](NC(=O)[C@H](CO)NC(=O)[C@H](CC(C)C)NC(=O)[C@H](CCC(N)=O)NC(=O)[C@H](CO)NC(=O)[C@H](C)NC(=O)CC[C@H](NC(=O)CCCCCCCCCCCCCCCCCCC(=O)O)C(=O)O)[C@@H](C)O)[C@@H](C)O)C(=O)N[C@@H](CC(C)C)C(=O)N1CCC[C@H]1C(=O)N1CCC[C@H]1C(=O)N[C@H](C(=O)N[C@@H](CC(N)=O)C(=O)N[C@H](C(=O)NCC(=O)N[C@@H](CO)C(=O)N[C@@H](CC(N)=O)C(=O)N[C@H](C(=O)N1C[C@H](O)C[C@H]1C(N)=O)[C@@H](C)O)C(C)C)[C@@H](C)O [M53] ({C20 diacid-γGlu}-ASQLSTAATQRLADFLRHSSKNLKPILPPTNVGSNT[Hyp]-NH2)
3 | – | – | – | – | – | 267 | 11.67 | – | – | – | – | – | – | 0.06 | 20.56 | CC[C@H](C)[C@H](NC(=O)[C@@H]1CCCN1C(=O)[C@H](CCCCN)NC(=O)[C@H](CC(C)C)NC(=O)[C@H](CC(N)=O)NC(=O)[C@H](CCCNC(=N)N)NC(=O)[C@H](CO)NC(=O)[C@H](CO)NC(=O)[C@H](Cc1c[nH]cn1)NC(=O)[C@H](CCCNC(=N)N)NC(=O)[C@H](CC(C)C)NC(=O)[C@H](Cc1ccccc1)NC(=O)[C@H](CC(=O)O)NC(=O)[C@H](C)NC(=O)[C@H](CC(C)C)NC(=O)[C@H](CCCNC(=N)N)NC(=O)[C@H](CCC(N)=O)NC(=O)[C@@H](NC(=O)[C@H](C)NC(=O)[C@H](C)NC(=O)[C@@H](NC(=O)[C@H](CO)NC(=O)[C@H](CC(C)C)NC(=O)[C@H](CCC(N)=O)NC(=O)[C@H](CO)NC(=O)[C@H](C)NC(=O)CC[C@H](NC(=O)CCCCCCCCCCCCCCCCCCC(=O)O)C(=O)O)[C@@H](C)O)[C@@H](C)O)C(=O)N[C@@H](CC(C)C)C(=O)N1CCC[C@H]1C(=O)N1CCC[C@H]1C(=O)N[C@H](C(=O)N[C@@H](CC(N)=O)C(=O)N[C@H](C(=O)NCC(=O)N[C@@H](CO)C(=O)N[C@@H](CC(N)=O)C(=O)N[C@H](C(=O)N1C[C@H](O)C[C@H]1C(N)=O)[C@@H](C)O)C(C)C)[C@@H](C)O [M54] ({C20 diacid-γGlu}-ASQLSTAATQRLADFLRHSSRNLKPILPPTNVGSNT[Hyp]-NH2)
